Test results as given in US7799821B2, “Therapeutic compounds” (Allergan, Inc., priority 2004, dated 2010).
Like-named read-outs stand apart in the source and are kept apart here.

Experiments:
[1] = target: T1, human EP2 receptors (Homo sapiens, UniProt P43116); test: Competition radioligand binding ([3H]PGE2), EP2; conditions: read-out: BINDING IC50 HEP2
T1 construct: expressed in transfected cells; host or cells: HEK 293

[2] = target: T2, hEP2/Gqs5 (Homo sapiens, UniProt P43116); test: FLIPR calcium signal, hEP2; type: cell-based
T2 construct: expressed in transfected cells; host or cells: HEK-293(EBNA)
T2 sequence (P43116 whole entry): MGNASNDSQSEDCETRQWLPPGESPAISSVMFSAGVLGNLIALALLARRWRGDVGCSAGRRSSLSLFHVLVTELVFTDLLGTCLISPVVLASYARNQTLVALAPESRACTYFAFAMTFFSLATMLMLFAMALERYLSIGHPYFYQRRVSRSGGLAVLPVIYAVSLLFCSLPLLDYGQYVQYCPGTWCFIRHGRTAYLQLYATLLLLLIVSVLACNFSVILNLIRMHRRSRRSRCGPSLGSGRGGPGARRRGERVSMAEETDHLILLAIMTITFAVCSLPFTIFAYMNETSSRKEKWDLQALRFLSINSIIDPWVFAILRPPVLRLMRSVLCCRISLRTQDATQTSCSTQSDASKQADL
Outline: (§1)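 HEK-293(EBNA) cells stably expressing the recombinant human receptor were loaded with 2 μM Fluo-4 AM for 45 min and read on FLIPR at 37° C in HBSS-HEPES pH 7.4. Peak fluorescence rise was expressed relative to buffer and standard agonist controls (BW245C, PGE2 or U-46619 by receptor); compounds were run 10^−5 to 10^−11 M in duplicate, n≧3.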

[3] = target: T3, hTP (Homo sapiens, UniProt P21731); test: FLIPR calcium signal, hTP; type: cell-based
T3 construct: expressed in transfected cells; host or cells: HEK-293(EBNA)
T3 sequence (P21731 1-343): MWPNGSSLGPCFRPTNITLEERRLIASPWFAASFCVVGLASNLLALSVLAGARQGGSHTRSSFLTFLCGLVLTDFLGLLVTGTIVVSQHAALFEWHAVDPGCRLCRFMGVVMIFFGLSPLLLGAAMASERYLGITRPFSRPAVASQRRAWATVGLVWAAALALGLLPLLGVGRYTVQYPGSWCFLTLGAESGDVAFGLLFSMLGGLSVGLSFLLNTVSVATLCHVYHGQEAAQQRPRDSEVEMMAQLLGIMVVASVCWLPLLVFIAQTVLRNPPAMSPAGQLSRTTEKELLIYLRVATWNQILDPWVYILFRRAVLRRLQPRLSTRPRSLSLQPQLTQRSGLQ
Method: (§2) HEK-293(EBNA) cells, stably expressing one type or subtype of recombinant human prostaglandin receptors (prostaglandin receptors expressed: hDP/Gqs5; hEP1; hEP2/Gqs5; hEP3A/Gqi5; hEP4/Gqs5; hFP; hIP; hTP), were cultured in 100 mm culture dishes in high-glucose DMEM medium containing 10% fetal bovine serum, 2 mM 1-glutamine, 250 μg/ml geneticin (G418) and 200 μg/ml hygromycin B as selection markers, and 100 units/ml penicillin G, 100 μg/ml streptomycin and 0.25 μg/ml amphotericin B. • (b) Calcium Signal Studies on the FLIPR™
(§3) Cells were seeded at a density of 5×10^4 cells per well in Biocoat® Poly-D-lysine-coated black-wall, clear-bottom 96-well plates (Becton-Dickinson) and allowed to attach overnight in an incubator at 37° C. Cells were then washed two times with HBSS-HEPES buffer (Hanks Balanced Salt Solution without bicarbonate and phenol red, 20 mM HEPES, pH 7.4) using a Denley Cellwash plate washer (Labsystems). After 45 minutes of dye-loading in the dark, using the calcium-sensitive dye Fluo-4 AM at a final concentration of 2 μM, plates were washed four times with HBSS-HEPES buffer to remove excess dye leaving 100 μl in each well. Plates were re-equilibrated to 37° C. for a few minutes.
(§4) Cells were excited with an Argon laser at 488 nm, and emission was measured through a 510-570 nm bandwidth emission filter (FLIPR™, Molecular Devices, Sunnyvale, Calif.). Drug solution was added in a 50 μl volume to each well to give the desired final concentration. The peak increase in fluorescence intensity was recorded for each well. On each plate, four wells each served as negative (HBSS-HEPES buffer) and positive controls (standard agonists: BW245C (hDP); PGE2 (hEP1; hEP2/Gqs5; hEP3A/Gqi5; hEP4/Gqs5); PGF2α (hFP); carbacyclin (hIP); U-46619 (hTP), depending on receptor). The peak fluorescence change in each drug-containing well was then expressed relative to the controls.
(§5) Compounds were tested in a high-throughput (HTS) or concentration-response (CoRe) format. In the HTS format, forty-four compounds per plate were examined in duplicates at a concentration of 10^−5 M. To generate concentration-response curves, four compounds per plate were tested in duplicates in a concentration range between 10^−5 and 10^−11 M. The duplicate values were averaged. In either, HTS or CoRe format each compound was tested on at least 3 separate plates using cells from different passages to give an n≧3.

[4] = target: T4, hEP4/Gqs5 (Homo sapiens, UniProt P35408); test: FLIPR calcium signal, hEP4; type: cell-based; conditions: FLIPR Ca2+ signal, HEK-293(EBNA); read-out: FUNCTIONAL EC50 HEP4
T4 construct: expressed in transfected cells; host or cells: HEK-293(EBNA)
T4 sequence (P35408 whole entry): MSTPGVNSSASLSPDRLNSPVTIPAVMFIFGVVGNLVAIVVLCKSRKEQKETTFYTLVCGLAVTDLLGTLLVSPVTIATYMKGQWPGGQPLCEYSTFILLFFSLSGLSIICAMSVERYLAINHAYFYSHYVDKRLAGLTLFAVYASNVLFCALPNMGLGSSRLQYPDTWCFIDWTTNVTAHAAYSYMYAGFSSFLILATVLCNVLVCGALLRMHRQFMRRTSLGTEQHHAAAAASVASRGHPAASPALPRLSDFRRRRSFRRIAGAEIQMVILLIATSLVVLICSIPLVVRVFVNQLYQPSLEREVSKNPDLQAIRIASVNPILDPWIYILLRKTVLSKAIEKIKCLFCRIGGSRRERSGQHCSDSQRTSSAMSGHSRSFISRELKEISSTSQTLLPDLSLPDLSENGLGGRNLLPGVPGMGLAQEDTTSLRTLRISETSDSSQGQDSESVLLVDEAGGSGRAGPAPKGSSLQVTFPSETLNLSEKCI
Outline: as §1

[5] = target: T5, EP4 receptors (Homo sapiens, UniProt P35408); test: Radioligand binding ([3H]PGE2), EP4; conditions: read-out: BINDING IC50 HEP4
T5 construct: expressed in transfected cells; host or cells: HEK-293
T5 sequence (P35408 whole entry): as above
Method: HEK-293 cells stably expressing the human or feline FP receptor, or EP1, EP2, or EP4 receptors were washed with TME buffer, scraped from the bottom of the flasks, and homogenized for 30 sec using a Brinkman PT 10/35 polytron. TME buffer was added to achieve a final 40 ml volume in the centrifuge tubes (the composition of TME is 100 mM TRIS base, 20 mM MgCl2, […]; 10N HCl is added to achieve a pH of 7.4).
The cell homogenate was centrifuged at 19000 r.p.m. for 20 min at 4° C. using a Beckman Ti-60 rotor. The resultant pellet was resuspended in TME buffer to give a final 1 mg/ml protein concentration, as determined by Biorad assay. Radioligand binding competition assays vs. [^3H-]17 —phenyl PGF2α (5 nM) were performed in a 100 μl volume for 60 min. Binding reactions were started by adding plasma membrane fraction. The reaction was terminated by the addition of 4 ml ice-cold TRIS-HCl buffer and rapid filtration through glass fiber GF/B filters using a Brandel cell harvester. The filters were washed 3 times with ice-cold buffer and oven dried for one hour.
[^3H-] PGE2 (specific activity 180 Ci mmol) was used as the radioligand for EP receptors. [^3H] 17-phenyl PGF2α was employed for FP receptor binding studies. Binding studies employing EP1, EP2, EP4 and FP receptors were performed in duplicate in at least three separate experiments. A 200 μl assay volume was used. Incubations were for 60 min at 25° C. and were terminated by the addition of 4 ml of ice-cold 50 mM TRIS-HCl, followed by rapid filtration through Whatman GF/B filters and three additional 4 ml washes in a cell harvester (Brandel). Competition studies were performed using a final concentration of 5 nM [^3H]—PGE2, or 5 nM [^3H] 17-phenyl PGF2α and non-specific binding determined with 10^−5M of unlabeled PGE2, or 17-phenyl PGF2α, according to receptor subtype studied.

[6] = target: T6, hEP1 (Homo sapiens, UniProt P34995); test: FLIPR calcium signal, hEP1; type: cell-based; conditions: FLIPR Ca2+ signal, HEK-293(EBNA); read-out: FUNCTIONAL EC50 HEP1
T6 construct: expressed in transfected cells; host or cells: HEK-293(EBNA)
T6 sequence (P34995 1-402): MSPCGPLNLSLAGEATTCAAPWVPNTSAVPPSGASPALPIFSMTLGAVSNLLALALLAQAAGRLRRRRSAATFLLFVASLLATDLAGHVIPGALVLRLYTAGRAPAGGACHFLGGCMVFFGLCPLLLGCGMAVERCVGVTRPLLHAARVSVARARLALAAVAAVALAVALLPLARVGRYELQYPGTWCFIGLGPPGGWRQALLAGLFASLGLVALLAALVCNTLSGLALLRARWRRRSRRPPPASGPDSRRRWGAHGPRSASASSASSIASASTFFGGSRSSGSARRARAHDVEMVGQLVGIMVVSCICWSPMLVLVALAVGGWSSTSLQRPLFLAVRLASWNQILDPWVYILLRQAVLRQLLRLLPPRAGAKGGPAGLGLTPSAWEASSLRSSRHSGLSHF
Method: as §2, §3, §4, §5

[7] = target: T7, hIP (Homo sapiens, UniProt P43119); test: FLIPR calcium signal, hIP; type: cell-based; conditions: FLIPR Ca2+ signal, HEK-293(EBNA); read-out: FUNCTIONAL EC50 HIP
T7 construct: expressed in transfected cells; host or cells: HEK-293(EBNA)
T7 sequence (P43119 whole entry): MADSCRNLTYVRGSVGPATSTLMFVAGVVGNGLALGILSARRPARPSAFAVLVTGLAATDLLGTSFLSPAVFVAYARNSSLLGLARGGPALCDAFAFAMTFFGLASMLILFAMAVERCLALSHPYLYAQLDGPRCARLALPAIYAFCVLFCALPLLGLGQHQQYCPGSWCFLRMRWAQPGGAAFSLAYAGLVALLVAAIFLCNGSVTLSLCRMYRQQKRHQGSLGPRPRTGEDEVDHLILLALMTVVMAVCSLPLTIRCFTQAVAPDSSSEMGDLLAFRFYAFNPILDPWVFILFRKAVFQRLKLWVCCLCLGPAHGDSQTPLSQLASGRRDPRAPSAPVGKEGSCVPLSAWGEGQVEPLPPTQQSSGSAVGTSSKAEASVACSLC
Method: as §2, §3, §4, §5

[8] = target: T8, hEP3A/Gqi5 (Homo sapiens, UniProt P43115); test: FLIPR calcium signal, hEP3A; type: cell-based; conditions: FLIPR Ca2+ signal, HEK-293(EBNA); read-out: FUNCTIONAL EC50 HEP3A
T8 construct: expressed in transfected cells; host or cells: HEK-293(EBNA)
T8 sequence (P43115 1-390): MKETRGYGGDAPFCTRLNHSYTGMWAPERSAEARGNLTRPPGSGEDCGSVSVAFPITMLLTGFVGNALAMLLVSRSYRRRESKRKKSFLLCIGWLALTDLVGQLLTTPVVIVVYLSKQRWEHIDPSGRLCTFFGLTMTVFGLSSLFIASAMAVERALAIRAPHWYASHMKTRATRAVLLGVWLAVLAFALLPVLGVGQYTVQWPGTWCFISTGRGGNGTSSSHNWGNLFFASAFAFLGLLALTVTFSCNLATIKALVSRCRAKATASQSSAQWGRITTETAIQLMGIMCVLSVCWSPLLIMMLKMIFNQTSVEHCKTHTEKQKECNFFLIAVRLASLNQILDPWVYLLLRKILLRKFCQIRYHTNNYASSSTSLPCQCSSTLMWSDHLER
Method: as §2, §3, §4, §5

[9] = target: T9, hDP/Gqs5 (Homo sapiens, UniProt Q13258); test: FLIPR calcium signal, hDP; type: cell-based; conditions: FLIPR Ca2+ signal, HEK-293(EBNA); read-out: FUNCTIONAL EC50 HDP
T9 construct: expressed in transfected cells; host or cells: HEK-293(EBNA)
T9 sequence (Q13258 1-359): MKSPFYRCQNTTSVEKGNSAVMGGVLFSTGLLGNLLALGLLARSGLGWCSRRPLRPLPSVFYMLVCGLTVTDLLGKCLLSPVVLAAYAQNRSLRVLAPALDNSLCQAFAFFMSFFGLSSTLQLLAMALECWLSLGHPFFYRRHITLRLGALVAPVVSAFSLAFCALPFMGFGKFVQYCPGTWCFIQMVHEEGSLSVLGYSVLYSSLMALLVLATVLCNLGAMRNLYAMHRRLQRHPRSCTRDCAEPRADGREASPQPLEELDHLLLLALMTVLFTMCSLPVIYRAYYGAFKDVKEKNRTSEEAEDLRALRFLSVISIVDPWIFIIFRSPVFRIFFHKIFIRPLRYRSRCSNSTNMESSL
Method: as §2, §3, §4, §5

[10] = FLIPR Ca2+ signal, HEK-293(EBNA), read-out: FUNCTIONAL EC50 HEP2
[11] = FLIPR Ca2+ signal, HEK-293(EBNA), read-out: FUNCTIONAL EC50 HTP

T1 sequence (P43116 whole entry): as the sequence (P43116 whole entry) above

| SMILES | EC50 [2, 10] [µM] | EC50 [3, 11] [µM] | EC50 [6] [µM] | also measured |
| --- | --- | --- | --- | --- |
| O=C(O)CCCCCC[C@@H]1[C@@H](c2ccc3c(c2)CCC3O)[C@H](O)C[C@H]1Cl (some centres unmarked) | 0.529 | 2.99 |  | IC50 [1]: 13.1 µM |
| COC(=O)CCCCCC[C@@H]1[C@@H](c2ccc3c(c2)CCC3O)[C@H](O)C[C@H]1Cl (some centres unmarked) |  | 17.5 |  | EC50 [4]: 22.5 µM |
| COC(=O)CCCCCC[C@@H]1[C@@H](c2ccc3c(c2)CCC3)[C@H](O)C[C@H]1Cl |  | 0.506 |  | IC50 [5]: 13.1 µM |
| O=C(O)CCCCCC[C@@H]1[C@@H](c2ccc3c(c2)CCC3)[C@H](O)C[C@H]1Cl | 0.818 | 0.2 | 0.221 | IC50 [1]: 6.25 µM |
| O=C(O)CCCCCC[C@H]1C(=O)C[C@@H](O)[C@@H]1c1ccc(C2(O)CCC2)cc1 | > 10 |  |  | EC50 [7]: > 10 µM |
| Cc1ccc([C@H]2[C@H](O)CC(=O)[C@@H]2CCCCCCC(=O)O)cc1 | 3.13 | 0.094 | 1.87 |  |
| O=C(O)CCCCCC[C@H]1C(=O)CC[C@@H]1c1ccc(C(O)C2CCCCC2)cc1 (some centres unmarked) |  |  |  | EC50 ([2]; read-out: FUNCTIONAL Ca2+ EC50 HEP2): > 10 µM; EC50 ([3]; read-out: FUNCTIONAL Ca2+ EC50 HTP): > 10 µM |
| CC(C)(C)c1ccc([C@@H]2[C@@H](CCCCCCC(=O)O)[C@H](Cl)C[C@H]2O)cc1 [drawing 70] | 0.264 | > 10 | > 10 | EC50 [8]: > 10 µM; EC50 [9]: > 10 µM |
